Source: patent publication US20100240612A1, “Prenylated Bisphosphonates as Anti-tuberculosis Agents” (priority 2009, published 2010)

How the values were obtained:
[1] = target: T1, mycobacterial polyprenyl synthase (RV2361c) (Mycobacterium tuberculosis, UniProt P9WFF7); assay: Test A: Inhibition of Mycobacterial Polyprenyl Synthase (RV2361c); type: biochemical; conditions: result in words, data only in FIG. 1/FIG. 2
T1 sequence (P9WFF7 1-296): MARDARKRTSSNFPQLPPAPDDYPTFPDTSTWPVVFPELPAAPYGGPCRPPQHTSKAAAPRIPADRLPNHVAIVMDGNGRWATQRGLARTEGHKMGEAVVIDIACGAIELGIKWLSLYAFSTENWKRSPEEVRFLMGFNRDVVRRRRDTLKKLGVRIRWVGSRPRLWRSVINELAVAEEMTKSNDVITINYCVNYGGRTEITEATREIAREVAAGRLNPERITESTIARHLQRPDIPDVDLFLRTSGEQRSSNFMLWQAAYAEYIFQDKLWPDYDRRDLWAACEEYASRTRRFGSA

[2] = test system: Mycobacterium Smegmatis (ATCC 607); assay: Test B: Inhibition of Growth of the Bacterium M. Smegmatis; type: cell-based; conditions: grown in the presence of drug for 2 days, absorbance at 540 nm or CFU; result in words, data only in FIG. 3, versus Isoniazid
Procedure: Mycobacterium Smegmatis (ATCC 607) was obtained from American Type Culture Collection and cultured in 7H9 broth (Sigma) containing ADC (Sigma), 0.5% glycerol, and 0.05% Tween-80. Bacteria were grown to log phase and then diluted, aliquoted, and grown in the presence of indicated drugs for 2 days. Growth was measured as a function of optical absorbance at 540 nm using a spectrophotometer. Alternatively, aliquots of liquid cultures were spread onto agar containing plates, which were then grown for 2 days, after which the number of colony forming units (CFU) were counted and normalized per mL.

| SMILES | inhibition of purified mycobacterial polyprenyl synthase (RV2361c) [1] | inhibition of growth of the bacterium M. Smegmatis [2] |
| --- | --- | --- |
| CC(C)=CCc1ccc(CC(P(=O)([O-])[O-])P(=O)([O-])[O-])cc1.[Na+].[Na+].[Na+].[Na+] [compound 13, p-Prenyl-phenethylidene bisphosphonic acid tetra sodium salt] | inhibition |  |
| COC(=O)c1ccccc1NC/C(C)=C/CC/C(C)=C/CC(P(=O)(OCOC(=O)C(C)(C)C)OCOC(=O)C(C)(C)C)P(=O)(OCOC(=O)C(C)(C)C)OCOC(=O)C(C)(C)C [compound 24] |  | inhibition of growth |
